Results from patent US8415342B2, “Besifloxacin ophthalmic composition for the treatment or control of infection” (Bausch & Lomb Incorporated, priority 2008, dated 2013).
Converted amounts (≈) assume the structure as drawn. “And” between values parts separate entries of the source, which are not always exact repeats. Identical values can stand only once.

Assays:
[1] = Nonclinical ocular tolerance, QID dosing for 28 days; type: in vivo
Source text: ERG measurements were included in the studies due to the known retinal toxicity associated with some fluoroquinolones.

[2] = Predicted PK/PD ratios in tears with simulated TID dosing (Table 10); parameters: species or system human; conditions: for Cmax/MIC90, Free / AUC24/MIC90, Free: tears, free besifloxacin (40% bound); for AUC24/MIC90, Free: predicted TID
E. coli = test: In vitro multistep selection for besifloxacin-resistant mutants; type: cell-based; conditions: for MIC: Escherichia coli
Experimental: (§1) Furthermore, an experiment was conducted to assess the mechanism of action of besifloxacin in S. pneumoniae, S. aureus, and E. coli via step selections for isolates with decreased susceptibility to besifloxacin, as well as by testing for altered susceptibilities of ciprofloxacin-resistant variants of all three species containing genetically defined mutations in the quinolone resistance determining regions (QRDRs) of structural genes encoding DNA gyrase and topoisomerase IV (Table 2).
(§2) Besifloxacin is a potent antibacterial agent by virtue of its efficient biochemical inhibition of type II bacterial topoisomerases at low micromolar levels. Besifloxacin was associated with a low mutant prevention concentration (MPC), especially in the two Gram-positive pathogens, S. aureus and S. pneumoniae, in which the MPCs were only four times higher than the MICs for those organisms. Correspondingly, very few drug-resistant mutants were obtained in in vitro experiments for those two species (<1 mutant per 10^10 cells).
(§3) As a consequence, strains with high-level resistance would only emerge if both targets were mutated simultaneously, an event that is not very likely in strains that lack predisposing mutations. A dual-targeting mechanism of action for besifloxacin is supported by the following experimental evidence: • In S. aureus and S. pneumoniae, single (1st step) mutants were extremely rare (<1/10^10 cells) and only few or no double (2nd step) mutants were obtained (Table 3). • Single mutations in the gyrA or in the parC gene were obtained in S. aureus as well as in S. pneumoniae. […] By comparison, all single mutations in quinolone-resistant strains of E. coli were mapped to either the gyrA or the gyrB gene consistent with the general finding that quinolones primarily target the DNA gyrase in Gram-negative bacteria. • Biochemical experiments with the purified DNA gyrase and topoisomerase IV enzymes from S. pneumoniae and E. coli were performed.

S. pneumoniae [3] = test: as above; type: cell-based; conditions: for MIC: Streptococcus pneumoniae
Experimental: as §1, §2, §3

S. aureus = test: as above; type: cell-based; conditions: for MIC: Staphylococcus aureus
Experimental: as §1, §2, §3

[4] = tested on: ocular isolates (S. pneumoniae, S. epidermidis, H. influenzae, and S. aureus); test: MBC versus MIC, all recent ocular isolates tested; type: cell-based
Source text: The success of in vivo antimicrobial action depends to a large extent on the host's defense mechanisms, which ultimately sequester and kill the microorganisms that have been reduced by the bacteriostatic/bactericidal action of the antibacterial agent. Thus, it is also of interest to profile the bactericidal activity of antimicrobial agents. The assessment of in vitro bactericidal activity can be accomplished in multiple ways, for example, the time-kill method or the determination of the minimum bactericidal concentration (MBC). […] Bactericidal agents are characterized by low MBC:MIC ratios.

E. coli DNA gyrase = E. coli DNA gyrase (Escherichia coli, UniProt P0AES4+P0AES6); test: Cleavable complex stimulation (CC25), DNA gyrase; type: biochemical; conditions: E. coli enzymes; concentration that produces 25% linearization of the DNA
bacterial conjunctivitis [5] = test: Study 433: besifloxacin ophthalmic suspension vs vehicle, TID 5 days; type: in vivo, human; conditions: N = 199; for Clinical Resolution (2 indices), No / Clinical Resolution (2 indices), Yes: mITT culture confirmed as randomized; for Microbial Eradication, No / Microbial Eradication, Yes: missing or discontinued imputed as no
[6] = tested on: genetically concordant pathogens of Visit 2 or Visit 3; test: Resistance development: PFGE and MIC testing of concordant isolate pairs from baseline and follow-up visits; type: cell-based
Experimental: (§4) PFGE testing was performed per standard procedures.
Isolate pairs from eyes with the same species at or above threshold at both baseline and follow-up visits were evaluated by Pulsed Field Gel Electrophoresis (PFGE) analysis to (i) distinguish new infections from recurrence and (ii) determine if any microbial eradication failures were correlated with antimicrobial resistance development during the study period.

[7] = tested on: E. coli topoisomerase mutants; test: MIC against defined topoisomerase mutants; type: cell-based; conditions: Escherichia coli
Experimental: as §1

E. coli topoisomerase IV = E. coli topoisomerase IV (Escherichia coli, UniProt P0AFI2+P20083); test: Cleavable complex stimulation (CC25), topoisomerase IV; type: biochemical; conditions: E. coli enzymes; concentration that produces 25% linearization of the DNA
bacterial conjunctivitis [8] = test: Study 434: besifloxacin ophthalmic suspension vs Vigamox, TID 5 days; type: in vivo, human; conditions: for Clinical Resolution (2 indices), No / Clinical Resolution (2 indices), Yes: mITT culture-confirmed as treated; for Microbial Eradication, No / Microbial Eradication, Yes: missing or discontinued imputed as no, as treated
H. influenzae = test: MIC of clinical trial isolates, Studies 373, 433, 434; type: cell-based; conditions: Haemophilus influenzae, isolates of studies 373, 433, 434; read-out: MIC90
Experimental: as §4
(§5) The antibacterial susceptibility profile of each Visit 1 bacterial isolate was determined for besifloxacin and other antimicrobials.

S. pneumoniae [9] = test: as above; type: cell-based; conditions: Streptococcus pneumoniae, isolates of studies 373, 433, 434; read-out: MIC90
Experimental: as §4, §5

[10] = Staphylococcus aureus (MRSA-CR)
[11] = Staphylococcus aureus (MSSA-CR)
[12] = Staphylococcus aureus (all phenotypes)
[13] = 2nd step, NMO = No mutants obtained
[14] = Visit 2 (Day 5 ± 1), primary endpoint

N[C@@H]1CCCCN(c2c(F)cc3c(=O)c(C(=O)O)cn(C4CC4)c3c2Cl)C1 [Besifloxacin, (R)-(+)-(3-amino-2,3,4,5,6,7-hexahydro-1H-azepin-1-yl)-8-chloro-1-cyclopropyl-6-fluoro-1,4,-dihydro-4-oxo-3-quinolinecarboxylic acid]
non-clinical ocular tolerance [1]: no adverse effects observed | AUC24/MIC90, Total [2]: 950 | Cmax/MIC90, Free ([2]; Haemophilus influenzae): 6100 | AUC24/MIC90, Free ([2]; Haemophilus influenzae): 38,010 | Cmax/MIC90, Free [2, 10]: 92 | AUC24/MIC90, Free [2, 10]: 570 | Cmax/MIC90, Free [2, 11]: 183 | AUC24/MIC90, Free [2, 11]: 1140 | Cmax/MIC90, Free [2, 12]: 732 | AUC24/MIC90, Free [2, 12]: 4561 | Cmax/MIC90, Free ([2]; Staphylococcus epidermidis): 732 | AUC24/MIC90, Free ([2]; Staphylococcus epidermidis): 4561 | Cmax/MIC90, Free ([2]; Streptococcus pneumoniae): 2928 | AUC24/MIC90, Free ([2]; Streptococcus pneumoniae): 18,245 | Cmax/MIC90, Total ([2]; human): 153 | MPC (Mutant prevention concentration) (E. coli; 1st step): 4 µg/mL | MSW (Mutant Selection Window) (E. coli; 1st step): 0.12 to 2 µg/mL | Mutation rate at 4 × MIC (E. coli; 1st step): 3.8 × 10^−8 | MPC (Mutant prevention concentration) (E. coli; 2nd step): 16 µg/mL | MSW (Mutant Selection Window) (E. coli; 2nd step): 2 to 8 µg/mL | Mutation rate at 4 × MIC (E. coli; 2nd step): 6 × 10^−9 | MIC (E. coli; 1st step): 0.12 µg/mL (≈ 0.305 µM) | MIC (E. coli; 2nd step): 2 µg/mL (≈ 5.08 µM) | MPC (Mutant prevention concentration) (S. pneumoniae [3]; 1st step): 0.5 µg/mL | MSW (Mutant Selection Window) (S. pneumoniae [3]; 1st step): 0.12 to 0.25 µg/mL | Mutation rate at 4 × MIC (S. pneumoniae [3]; 1st step): <7 × 10^−10 | MPC (Mutant prevention concentration) (S. pneumoniae [3]; 2nd step): 2 to 4 µg/mL | MSW (Mutant Selection Window) (S. pneumoniae [3]; 2nd step): 0.5 to 2 µg/mL | Mutation rate at 4 × MIC (S. pneumoniae [3]; 2nd step): 2.4 × 10^−8 | MIC (S. pneumoniae [3]; 1st step): 0.12 µg/mL (≈ 0.305 µM) | MIC (S. pneumoniae [3]; 2nd step): 0.5 µg/mL (≈ 1.27 µM) | frequency of drug-resistant (single, 1st step) mutants (S. pneumoniae [3]; in vitro): < 1 per 10^10 cells | MPC (Mutant prevention concentration) (S. aureus; 1st step): 0.12 µg/mL | MSW (Mutant Selection Window) (S. aureus; 1st step): 0.03 to 0.06 µg/mL | Mutation rate at 4 × MIC (S. aureus; 1st step): 3.3 × 10^−10 | MPC (Mutant prevention concentration) (S. aureus; 2nd step): 0.25 µg/mL | MSW (Mutant Selection Window) (S. aureus; [13]): NMO | Mutation rate at 4 × MIC (S. aureus; [13]): NMO | MIC (S. aureus; 1st step): 0.03 µg/mL (≈ 0.0762 µM) | MIC (S. aureus; 2nd step): 0.25 µg/mL (≈ 0.635 µM) | frequency of drug-resistant (single, 1st step) mutants (S. aureus; in vitro): < 1 per 10^10 cells | isolates with MBC within 4-fold of the MIC [4]: more than 80% | CC25 Gyrase (E. coli DNA gyrase): 0.1 μM and 0.04 μg/mL | Clinical Resolution (2 indices), No (bacterial conjunctivitis [5]; Visit 2 (Day 5 ± 1)): 109 (54.8) n (%) | Microbial Eradication, No (bacterial conjunctivitis [5]; Visit 2 (Day 5 ± 1)): 17 (8.5) n (%) | Clinical Resolution (2 indices), Yes (bacterial conjunctivitis [5]; [14]): 90 (45.2) n (%) | Microbial Eradication, Yes (bacterial conjunctivitis [5]; [14]): 182 (91.5) n (%) | Clinical Resolution (2 indices), No (bacterial conjunctivitis [5]; Visit 3 (Day 8 or 9)): 31 (15.6) n (%) | Clinical Resolution (2 indices), Yes (bacterial conjunctivitis [5]; Visit 3 (Day 8 or 9)): 168 (84.4) n (%) | Microbial Eradication, No (bacterial conjunctivitis [5]; Visit 3 (Day 8 or 9)): 23 (11.6) n (%) | Microbial Eradication, Yes (bacterial conjunctivitis [5]; Visit 3 (Day 8 or 9)): 176 (88.4) n (%) | increase of MIC of Visit 2 or Visit 3 isolates versus baseline ([6]; Study 373, 47 genetically concordant isolate pairs): ≤ 2 fold | increase of MIC of Visit 2 or Visit 3 isolates versus baseline ([6]; Study 433, 122 genetically concordant isolate pairs): ≤ 2 fold | increase of MIC of Visit 2 or Visit 3 isolates versus baseline ([6]; Study 434, 65 genetically concordant isolate pairs): ≤ 2 fold | MIC ([7]; E. coli Wild type): 0.12 µg/mL (≈ 0.305 µM) | MIC ([7]; E. coli gyrA D87Y (or S83L)): 0.5 µg/mL (≈ 1.27 µM) | MIC ([7]; E. coli gyrA S83L + parC S80R): 16 µg/mL | MIC ([7]; E. coli gyrA S83L + parE H445L): 1 µg/mL | MIC ([7]; E. coli gyrB D426N): 0.5 µg/mL (≈ 1.27 µM) | CC25 Topo IV (E. coli topoisomerase IV): 1.4 μM and 0.6 μg/mL | Clinical Resolution (2 indices), No (bacterial conjunctivitis [8]; Visit 2 (Day 5 ± 1)): 105 (41.7) n (%) | Microbial Eradication, No (bacterial conjunctivitis [8]; Visit 2 (Day 5 ± 1)): 17 (6.7) n (%) | Clinical Resolution (2 indices), Yes (bacterial conjunctivitis [8]; [14]): 147 (58.3) n (%) | Microbial Eradication, Yes (bacterial conjunctivitis [8]; [14]): 235 (93.3) n (%) | Clinical Resolution (2 indices), No (bacterial conjunctivitis [8]; Visit 3 (Day 8 or 9)): 39 (15.5) n (%) | Clinical Resolution (2 indices), Yes (bacterial conjunctivitis [8]; Visit 3 (Day 8 or 9)): 213 (84.5) n (%) | Microbial Eradication, No (bacterial conjunctivitis [8]; Visit 3 (Day 8 or 9)): 32 (12.7) n (%) | Microbial Eradication, Yes (bacterial conjunctivitis [8]; Visit 3 (Day 8 or 9)): 220 (87.3) n (%) | MIC90 (H. influenzae): 0.06 µg/mL | MIC90 (S. pneumoniae [9]): 0.125 µg/mL
